Laboratory results from ChEMBL document CHEMBL1201862, “PubChem BioAssay data set” (2004).
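Following 48 hours of exposure in 96-well plates, responses at five concentrations were used to interpolate endpoints linearly. GI50 = concentration required for 50% inhibition of growth.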 Calls of active or inactive are those of the source. Rule as the data show it: active = GI50 up to about 1.1 µM and inactive = higher.

Legend:
Experiment in all cases: NCI tumour cell line growth inhibition, 48 h
K562 = test system: K562
M14 = test system: M14
HCC 2998 = test system: HCC 2998
A549 = test system: A549
OVCAR-3 = test system: OVCAR-3
EKVX = test system: EKVX
NCI-H460 = test system: NCI-H460
KM12 = test system: KM12
MDA-MB-231 = test system: MDA-MB-231
BT-549 = test system: BT-549
MDA-N = test system: MDA-N
PC-3 = test system: PC-3
NCI/ADR-RES = test system: NCI/ADR-RES
T47D = test system: T47D
DU-145 = test system: DU-145
MCF7 = test system: MCF7
786-0 = test system: 786-0
Hs-578T = test system: Hs-578T
MDA-MB-435 = test system: MDA-MB-435

SMILES	GI50 (K562)	GI50 (M14)	GI50 (HCC 2998)	GI50 (A549)	GI50 (OVCAR-3)	GI50 (EKVX)	GI50 (NCI-H460)	GI50 (KM12)	GI50 (MDA-MB-231)	GI50 (BT-549)	GI50 (MDA-N)	GI50 (PC-3)	GI50 (NCI/ADR-RES)	GI50 (T47D)	GI50 (DU-145)	GI50 (MCF7)	GI50 (786-0)	GI50 (Hs-578T)	GI50 (MDA-MB-435)
COc1ccc(C2=NN(c3nsc4ccccc34)C(=O)CC2)cc1	36 µM (inactive)	> 100 µM (inactive)	> 100 µM (inactive)	> 100 µM (inactive)	32.3 µM (inactive)	55.2 µM (inactive)	62.7 µM (inactive)	> 100 µM (inactive)											
NN/C(=N\S(=O)(=O)c1cccc2nsnc12)Nc1ccc(Cl)cc1	> 100 µM (inactive)	> 100 µM (inactive)		> 100 µM (inactive)	> 100 µM (inactive)	> 100 µM (inactive)	> 100 µM (inactive)	> 100 µM (inactive)	> 100 µM (inactive)	> 100 µM (inactive)	> 100 µM (inactive)	> 100 µM (inactive)	> 100 µM (inactive)	48.6 µM (inactive)	> 100 µM (inactive)	> 100 µM (inactive)	> 100 µM (inactive)		
c1cc2nnc1SCCCSc1ccc(nn1)SCCCS2	> 27.9 µM (inactive)	> 25.9 µM (inactive)	> 37.8 µM (inactive)	41.6 µM (inactive)	> 43.2 µM (inactive)	> 100 µM (inactive)		> 35.6 µM (inactive)	30 µM (inactive)	19.9 µM (inactive)	> 29.9 µM (inactive)	38.7 µM (inactive)	> 20.5 µM (inactive)	31.3 µM (inactive)	> 48 µM (inactive)	32.4 µM (inactive)	24.2 µM (inactive)	26.5 µM (inactive)	> 40.6 µM (inactive)
CCCCCCCCCCCCCCCCCC(=O)OCC(COC(=O)CCCN)OC(=O)CCCN (stereo not given)	35.6 µM (inactive)	16.9 µM (inactive)	18.5 µM (inactive)	4.1 µM (inactive)	19.3 µM (inactive)	20.8 µM (inactive)	14.9 µM (inactive)	15.5 µM (inactive)	15 µM (inactive)		19.9 µM (inactive)	17.1 µM (inactive)	19.7 µM (inactive)	17.4 µM (inactive)	19.6 µM (inactive)	24.4 µM (inactive)	17.3 µM (inactive)	19.2 µM (inactive)	17.2 µM (inactive)
CN(C)CCNC(=O)c1ccc(NCCCN(C)CCCNc2ccc(C(=O)NCCN(C)C)c3nc4ccccc4c(O)c23)c2c(O)c3ccccc3nc12	0.0394 µM (active)	0.187 µM (active)	< 0.01 µM (active)	< 0.01 µM (active)	0.0228 µM (active)	0.115 µM (active)	< 0.01 µM (active)	< 0.0116 µM (active)	0.111 µM (active)	0.254 µM (active)		< 0.01 µM (active)	1.8 µM (inactive)	0.171 µM (active)	< 0.0114 µM (active)	< 0.01 µM (active)	< 0.01 µM (active)	0.0223 µM (active)	0.0101 µM (active)
O=C1/C(=C/c2ccccc2)NC(=S)N1CN1CCOCC1	> 100 µM (inactive)	> 100 µM (inactive)		> 100 µM (inactive)	> 100 µM (inactive)	> 100 µM (inactive)		> 100 µM (inactive)	> 100 µM (inactive)		> 100 µM (inactive)	> 100 µM (inactive)	> 100 µM (inactive)		> 100 µM (inactive)	> 100 µM (inactive)	> 100 µM (inactive)	> 100 µM (inactive)	> 100 µM (inactive)
CN(O)C(=O)CCCC(=O)NCC(C)(C)CNC(=O)CCCC(=O)N(C)O	> 100 µM (inactive)	> 100 µM (inactive)	> 100 µM (inactive)	> 100 µM (inactive)	> 100 µM (inactive)	> 100 µM (inactive)	> 100 µM (inactive)	> 100 µM (inactive)	> 100 µM (inactive)		> 100 µM (inactive)	> 100 µM (inactive)	> 100 µM (inactive)	> 100 µM (inactive)	> 100 µM (inactive)	> 100 µM (inactive)		> 100 µM (inactive)	> 100 µM (inactive)
Cc1cc(O)c(C(c2cccnc2)c2c(O)cc(C)[nH]c2=O)c(=O)[nH]1	> 100 µM (inactive)	> 100 µM (inactive)		> 100 µM (inactive)	> 100 µM (inactive)	> 100 µM (inactive)	> 100 µM (inactive)	> 100 µM (inactive)	> 100 µM (inactive)	> 100 µM (inactive)	> 100 µM (inactive)	> 100 µM (inactive)	> 100 µM (inactive)	> 100 µM (inactive)	> 100 µM (inactive)	> 100 µM (inactive)	> 100 µM (inactive)	> 100 µM (inactive)	> 100 µM (inactive)
CC(=O)O[C@@H]1C2=C(C3=C([O-])C4=CC=CC(=O)C4C(=O)C3=C2[N+]#N)[C@H](OC(C)=O)[C@@H](OC(C)=O)[C@]1(C)O (stereo not given in full)	0.151 µM (active)	0.177 µM (active)	0.262 µM (active)	0.292 µM (active)	0.502 µM (active)	0.605 µM (active)	0.693 µM (active)	0.333 µM (active)	0.286 µM (active)	0.631 µM (active)	0.361 µM (active)	0.417 µM (active)	0.128 µM (active)		0.383 µM (active)	0.392 µM (active)	0.306 µM (active)	0.173 µM (active)	0.644 µM (active)
Cc1nc2cccc(F)c2c(=O)n1C1CCCCNC1=O (stereo not given)	> 10 µM (inactive)	> 10 µM (inactive)	> 10 µM (inactive)	> 10 µM (inactive)	> 10 µM (inactive)	> 10 µM (inactive)	> 10 µM (inactive)	> 10 µM (inactive)	> 10 µM (inactive)		> 10 µM (inactive)	> 10 µM (inactive)	> 10 µM (inactive)	> 10 µM (inactive)	> 10 µM (inactive)	> 10 µM (inactive)	> 10 µM (inactive)	> 10 µM (inactive)	> 10 µM (inactive)
CC(C)CC(NC(=O)OCc1ccccc1)C(=O)NCCCCC(N)C(=O)NC(CCCCNC(=O)C(CC(C)C)NC(=O)OCc1ccccc1)C(=O)NC(CCCCNC(=O)C(CC(C)C)NC(=O)OCc1ccccc1)C(=O)NC(CCCCNC(=O)C(CC(C)C)NC(=O)OCc1ccccc1)C(=O)NC(CCCCNC(=O)C(CC(C)C)NC(=O)OCc1ccccc1)C(=O)NC(CCCCNC(=O)C(CC(C)C)NC(=O)OCc1ccccc1)C(=O)O (stereo not given)	> 100 µM (inactive)		> 100 µM (inactive)	> 100 µM (inactive)	> 100 µM (inactive)		> 100 µM (inactive)		> 100 µM (inactive)	> 100 µM (inactive)	> 100 µM (inactive)	> 100 µM (inactive)		> 100 µM (inactive)	> 100 µM (inactive)	> 100 µM (inactive)	> 100 µM (inactive)		> 100 µM (inactive)
CCOP(=Nc1ccc(N(C)C)cc1)(OCC)OCC	> 100 µM (inactive)	> 100 µM (inactive)	> 100 µM (inactive)	> 100 µM (inactive)	> 100 µM (inactive)	> 100 µM (inactive)	> 100 µM (inactive)	> 100 µM (inactive)	> 100 µM (inactive)	> 100 µM (inactive)	> 100 µM (inactive)	> 100 µM (inactive)	> 100 µM (inactive)		> 100 µM (inactive)	> 100 µM (inactive)		> 100 µM (inactive)	> 100 µM (inactive)
